The subject of experiment [1] is IFNγ stimulated STAT1 phosphorylation on Tyr701 (JAK1/2). Description: JAK1/2 cellular target modulation: IFNγ stimulated phospho-STAT1 in PBMC. The following applies: human PBMC, IFNγ 10 ng/ml; read-out: Infγ-STAT1 IC50. Format: cell-based. From the text: (§1) JAK Cellular Target Modulation Assays
(§2) Target modulation was based upon the ability of a compound to inhibit JAK isoform specific phosphorylation of selected substrates. IL-2 stimulated STAT5 phosphorylation on Tyr694 was used to assess JAK1/3 compound selectivity. GM-CSF stimulated STAT5 phosphorylation on Tyr694 was used to assess JAK2 compound selectivity. IFNγ stimulated STAT1 phosphorylation on Tyr701 was used to assess JAK1/2 compound selectivity. IL-12 stimulated STAT4 phosphorylation on Tyr693 was used to assess JAK2/TYK2 compound selectivity. For all four assays, human PBMC from frozen stocks were thawed, pelleted, resuspended in complete media (90% RPMI, 10% heat inactivated FBS, 10 mM HEPES, 47 μM 2-ME, pen/strep) and placed in wells of a 96 well V-bottom plate at 200,000 per well in 120 μl complete media. Compounds were added as 15 μl per well of 10× working stock solutions in complete media with 1% DMSO (or medium with 1% DMSO for controls) and placed on a plate shaker in a 37° C. incubator with 5% CO2 for 1 hour with gentle shaking (setting of 3). Stimulation used the addition of soluble cytokines. For the JAK1/3 phospho-STAT5 assay, 15 μl of 10× working stock recombinant human IL-2 was added to a final concentration of 25 ng/ml. For the JAK2 phospho-STAT5 assay, 15 μl of 10× working stock recombinant human GM-CSF was added to a final concentration of 5 ng/ml. For the JAK1/2 phospho-STAT1 assay, 15 μl of 10× working stock of recombinant human IFNγ was added to a final concentration of 10 ng/ml. For the JAK2/TYK2 phospho-STAT4 assay, 15 μl of 10× working stock of recombinant human IL-12 was added to a final concentration of 1.7 ng/ml. Plates were then placed back on the plate shaker in the incubator for an additional 5, 5, 10, and 25 minutes respectively upon which the plates were removed from the incubator, sealed with a plate sealer and the cells pelleted at 400×g for 5 minutes. After pelleting, the media was removed by aspiration and the cells were lysed in assay specific cell lysis buffer. The levels of phospho-STATS were determined using a Phospho (Tyr694) STAT5a,b Whole Cell Lysate kit from Meso Scale Discovery. Levels of phospho-STAT1 were determined using a CST-PathScan Phospho-STAT1 (Tyr701) Sandwich ELISA kit. Levels of phospho-STAT4 were determined using a Phospho-STAT4 (Tyr693) Whole Cell Lysate kit from Meso Scale Discovery.

Experiment [2] has as its system IL-12 stimulated STAT4 phosphorylation on Tyr693 (JAK2/TYK2). Description: JAK2/TYK2 cellular target modulation: IL-12 stimulated phospho-STAT4 in PBMC. In kind it is cell-based. The following applies: human PBMC, IL-12 1.7 ng/ml; read-out: IL12-STAT4 IC50.
Text: as §1, §2

A further experiment concerns the target Tyk-2 (Homo sapiens (Human), UniProt P29597). The experiment is described as follows: Tyk-2 enzyme activity assay (Thermo Fisher SelectScreen, Z-lyte). The following applies: read-out: Tyk-2 Inhibition IC50. In kind it is biochemical. As for the experimental part:
(§3) JAK1, JAK2, JAK3, and Tyk-2 Enzyme Activity Assays
(§4) The inhibitory potency of candidate compounds of JAK1, JAK2, and Tyk-2 was done at Thermo Fisher Scientific in their Selectscreen using a Z-lyte assay. Following are the assay details for each enzyme.
TYK2: The 2×TYK2/Tyr 03 mixture is prepared in 50 mM HEPES pH 6.5, 0.01% BRIJ-35, 10 mM MgCl2, 1 mM EGTA, 0.02% NaN3. The final 10 μL Kinase Reaction consists of 3.75-15 ng TYK2 and 2 M Tyr 03 in 50 mM HEPES pH 7.0, 0.01% BRIJ-35, 10 mM MgCl2, 1 mM EGTA, 0.01% NaN3. After the one hour KinaseReaction incubation, 5 μL of a 1:4096 dilution of Development Reagent A is added.
(§5) Data reduction for JAK1, JAK2 and TYK2 is done the same, independent of the enzyme run. In summary, background signal is defined in the absence of enzyme and uninhibited signal is defined in the presence of vehicle (2% DMSO) alone. Compounds were evaluated in an 11 point dose-response ranging from […] to 0.34 nM. IC50 values of compounds are determined using a 4 parameter logistical fit of emission ratio as a function of the concentration of compound.

The next experiment has as its target JAK3 (a.a. 781-1124) (Homo sapiens (Human), UniProt P52333). The experiment is described as follows: JAK3 enzyme activity assay (SRCtide phosphorylation, Caliper). Format: biochemical. The following applies: 1 uM ATP; read-out: JAK3 Inhibition IC50. As for the experimental part:
as §3
Kinase reactions were run in a 384-well Greiner plate with 2% final DMSO concentration under the buffer conditions of 20 mM HEPES, pH 7.5, 10 mM MgCl2, 0.01% BSA, and 0.0005% Tween-20. The kinase reaction components were 2.5 nM JAK3, 1 μM SRCtide peptide and 1 uM ATP. Examples were tested in dose-response starting at 2 M (11 concentrations, 3-fold serial dilution, duplicate reactions). The reactions were incubated at room temperature for 40 minutes, then stopped by adding a 1:1 volume of 30 mM EDTA in 20 mM HEPES, pH 7.5 (15 mM EDTA final). After the reaction was stopped, the phosphorylated and unphosphorylated peptides were separated and quantified using a Caliper LC3000/EZ-Reader system and HTS Well Analyzer Software (Caliper, A PerkinElmer Company, Hopkinton, Mass.). GraFit (Erithacus Software Ltd., Horley, U.K.) was used to calculate inhibitor potency by fitting dose-response data to the 4-parameter logistical IC50 equation.

For a further experiment, the target named is JAK2 (Homo sapiens (Human), UniProt O60674). Description: JAK2 enzyme activity assay (Thermo Fisher SelectScreen, Z-lyte). Format: biochemical. The following applies: read-out: JAK2 Inhibition IC50. As for the experimental part: as §3, §4
JAK2: The 2×JAK2/Tyr 06 mixture is prepared in 50 mM HEPES pH 7.5, 0.01% BRIJ-35, 10 mM MgCl2, 1 mM EGTA. The final 10 μL Kinase Reaction consists of 0.12-0.5 ng JAK2 and 2 M Tyr 06 in 50 mM HEPES pH 7.5, 0.01% BRIJ-35, 10 mM MgCl2, 1 mM EGTA. After the one hour Kinase Reaction incubation, 5 μL of a 1:128 dilution of Development Reagent A is added.
as §5

In the next experiment the target is JAK1 (Homo sapiens (Human), UniProt P23458). The experiment is described as follows: JAK1 enzyme activity assay (Thermo Fisher SelectScreen, Z-lyte). The following applies: read-out: JAK1 Inhibition IC50. Format: biochemical. The procedure:
as §3, §4
JAK: The 2×JAK-enzyme/Tyr 06 mixture is prepared in 50 mM HEPES pH 6.5, 0.01% BRIJ-35, 10 mM MgCl2, 1 mM EGTA, 0.02% NaN3. The final 10 μL of the Kinase Reaction consists of 21.2-91.5 ng JAK and 2 M Tyr 06 in 50 mM HEPES pH 7.0, 0.01% BRIJ-35, 10 mM MgCl2, 1 mM EGTA, 0.01% NaN3. After the one hour Kinase Reaction incubation, 5 μL of a 1:128 dilution of Development Reagent is added.
as §5

The test system of experiment [3] is IL-2 stimulated STAT5 phosphorylation on Tyr694 (JAK1/3). Description: JAK1/3 cellular target modulation: IL-2 stimulated phospho-STAT5 in PBMC. The settings on record: human PBMC, IL-2 25 ng/ml; read-out: IL2-STAT5 IC50. Format: cell-based.
Text: as §1, §2

Counter-ions that a name gives are not always drawn. Where only a bound is given, the exact number is not on record here.

Sequence of JAK2 (O60674 whole entry): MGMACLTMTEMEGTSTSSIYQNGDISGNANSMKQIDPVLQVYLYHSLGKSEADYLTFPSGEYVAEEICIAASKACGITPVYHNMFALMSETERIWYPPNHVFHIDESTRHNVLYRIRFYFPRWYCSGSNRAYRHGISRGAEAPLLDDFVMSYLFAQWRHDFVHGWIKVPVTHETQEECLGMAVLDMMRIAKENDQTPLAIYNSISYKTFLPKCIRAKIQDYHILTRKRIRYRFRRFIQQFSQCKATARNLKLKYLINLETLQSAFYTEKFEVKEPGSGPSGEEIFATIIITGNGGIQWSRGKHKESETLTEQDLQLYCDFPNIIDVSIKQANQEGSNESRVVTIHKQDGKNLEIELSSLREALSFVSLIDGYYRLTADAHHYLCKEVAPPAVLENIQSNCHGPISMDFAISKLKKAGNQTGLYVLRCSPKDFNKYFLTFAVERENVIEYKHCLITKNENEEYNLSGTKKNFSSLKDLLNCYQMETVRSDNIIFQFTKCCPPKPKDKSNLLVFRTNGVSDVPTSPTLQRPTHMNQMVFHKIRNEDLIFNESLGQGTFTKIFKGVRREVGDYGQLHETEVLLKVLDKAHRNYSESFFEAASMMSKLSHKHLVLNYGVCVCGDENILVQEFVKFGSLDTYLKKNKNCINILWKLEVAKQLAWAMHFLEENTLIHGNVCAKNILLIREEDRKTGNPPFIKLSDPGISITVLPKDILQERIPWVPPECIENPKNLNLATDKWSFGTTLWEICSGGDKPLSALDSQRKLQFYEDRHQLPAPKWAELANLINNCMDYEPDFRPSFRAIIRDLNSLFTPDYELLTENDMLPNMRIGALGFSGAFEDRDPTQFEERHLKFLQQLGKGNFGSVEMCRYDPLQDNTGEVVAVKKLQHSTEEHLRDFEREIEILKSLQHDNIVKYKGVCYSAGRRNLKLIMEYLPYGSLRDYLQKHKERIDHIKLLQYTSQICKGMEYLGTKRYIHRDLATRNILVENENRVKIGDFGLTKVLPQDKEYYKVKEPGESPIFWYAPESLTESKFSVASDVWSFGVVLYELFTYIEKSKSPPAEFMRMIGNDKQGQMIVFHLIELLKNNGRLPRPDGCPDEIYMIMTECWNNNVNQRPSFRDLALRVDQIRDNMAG
Sequence of JAK1 (P23458 whole entry): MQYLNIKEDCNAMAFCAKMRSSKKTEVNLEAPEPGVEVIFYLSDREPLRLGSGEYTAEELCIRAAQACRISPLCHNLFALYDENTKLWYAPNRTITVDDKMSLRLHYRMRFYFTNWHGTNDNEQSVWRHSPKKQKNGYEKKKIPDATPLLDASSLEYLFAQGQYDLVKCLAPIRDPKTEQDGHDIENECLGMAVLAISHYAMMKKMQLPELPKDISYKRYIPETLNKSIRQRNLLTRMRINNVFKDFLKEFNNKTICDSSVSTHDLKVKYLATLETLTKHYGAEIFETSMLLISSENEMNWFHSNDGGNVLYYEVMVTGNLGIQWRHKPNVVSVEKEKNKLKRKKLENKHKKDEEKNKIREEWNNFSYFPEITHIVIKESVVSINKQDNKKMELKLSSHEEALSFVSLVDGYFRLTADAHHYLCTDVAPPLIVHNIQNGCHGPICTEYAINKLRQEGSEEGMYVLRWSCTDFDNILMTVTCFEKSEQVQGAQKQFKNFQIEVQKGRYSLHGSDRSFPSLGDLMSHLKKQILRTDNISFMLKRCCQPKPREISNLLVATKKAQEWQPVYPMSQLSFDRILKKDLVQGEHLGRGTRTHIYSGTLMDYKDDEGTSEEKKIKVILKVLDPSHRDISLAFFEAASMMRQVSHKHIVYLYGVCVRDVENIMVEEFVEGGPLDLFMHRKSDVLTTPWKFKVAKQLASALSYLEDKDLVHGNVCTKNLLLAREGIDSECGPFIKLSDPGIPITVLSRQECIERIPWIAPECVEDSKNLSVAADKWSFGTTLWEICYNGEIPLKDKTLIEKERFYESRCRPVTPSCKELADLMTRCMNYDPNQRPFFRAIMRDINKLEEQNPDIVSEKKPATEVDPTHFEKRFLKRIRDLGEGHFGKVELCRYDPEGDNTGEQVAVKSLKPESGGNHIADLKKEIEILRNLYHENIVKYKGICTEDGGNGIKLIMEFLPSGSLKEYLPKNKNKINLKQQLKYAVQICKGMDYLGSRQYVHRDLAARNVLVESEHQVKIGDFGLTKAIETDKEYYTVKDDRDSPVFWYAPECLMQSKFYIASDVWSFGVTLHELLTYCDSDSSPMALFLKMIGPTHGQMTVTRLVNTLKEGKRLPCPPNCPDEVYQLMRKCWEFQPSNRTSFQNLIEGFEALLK
Sequence of Tyk-2 (P29597 whole entry): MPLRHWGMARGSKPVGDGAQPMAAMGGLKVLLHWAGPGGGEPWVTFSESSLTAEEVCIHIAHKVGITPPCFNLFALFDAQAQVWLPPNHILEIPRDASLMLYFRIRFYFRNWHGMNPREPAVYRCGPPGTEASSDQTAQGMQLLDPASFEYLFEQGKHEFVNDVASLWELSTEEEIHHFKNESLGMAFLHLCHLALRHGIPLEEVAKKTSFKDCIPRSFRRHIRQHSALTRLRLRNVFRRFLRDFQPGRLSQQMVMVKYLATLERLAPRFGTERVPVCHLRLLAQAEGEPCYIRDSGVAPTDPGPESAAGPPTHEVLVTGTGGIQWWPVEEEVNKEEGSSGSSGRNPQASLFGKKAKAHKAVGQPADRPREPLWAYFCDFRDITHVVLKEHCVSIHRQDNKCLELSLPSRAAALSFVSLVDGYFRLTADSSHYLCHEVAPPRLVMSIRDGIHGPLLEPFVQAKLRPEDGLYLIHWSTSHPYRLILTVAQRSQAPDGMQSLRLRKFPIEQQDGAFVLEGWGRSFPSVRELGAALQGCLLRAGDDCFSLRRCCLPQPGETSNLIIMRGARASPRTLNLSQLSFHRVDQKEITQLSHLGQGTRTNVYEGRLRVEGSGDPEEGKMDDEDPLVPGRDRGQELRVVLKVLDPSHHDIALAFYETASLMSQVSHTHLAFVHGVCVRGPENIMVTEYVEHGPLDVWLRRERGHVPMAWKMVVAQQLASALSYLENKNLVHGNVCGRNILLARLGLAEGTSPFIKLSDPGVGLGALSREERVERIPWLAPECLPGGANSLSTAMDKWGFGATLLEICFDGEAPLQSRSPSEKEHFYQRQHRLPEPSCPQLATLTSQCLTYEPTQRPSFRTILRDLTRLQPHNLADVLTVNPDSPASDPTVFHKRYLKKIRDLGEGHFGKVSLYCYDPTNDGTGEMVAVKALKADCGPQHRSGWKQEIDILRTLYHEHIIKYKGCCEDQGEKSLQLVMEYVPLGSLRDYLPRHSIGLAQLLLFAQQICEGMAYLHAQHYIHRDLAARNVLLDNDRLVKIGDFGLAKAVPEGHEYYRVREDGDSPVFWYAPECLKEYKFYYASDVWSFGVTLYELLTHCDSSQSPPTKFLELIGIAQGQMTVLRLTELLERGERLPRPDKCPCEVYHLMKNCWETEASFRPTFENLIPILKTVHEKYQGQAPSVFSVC
Sequence of JAK3 (a.a. 781-1124) (P52333 781-1124): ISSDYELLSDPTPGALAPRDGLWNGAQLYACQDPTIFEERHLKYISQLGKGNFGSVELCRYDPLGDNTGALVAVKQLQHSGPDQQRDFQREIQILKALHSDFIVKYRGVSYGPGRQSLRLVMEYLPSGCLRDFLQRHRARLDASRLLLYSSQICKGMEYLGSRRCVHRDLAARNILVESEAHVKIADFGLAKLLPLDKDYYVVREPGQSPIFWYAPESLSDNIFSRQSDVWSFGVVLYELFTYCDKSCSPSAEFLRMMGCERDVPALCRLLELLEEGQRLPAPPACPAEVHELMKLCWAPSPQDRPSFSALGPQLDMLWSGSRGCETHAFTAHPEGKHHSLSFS

`C[C@H]1C[C@@H](Nc2c(-c3ncco3)cnc3[nH]ccc23)CN(C(=O)CC#N)C1` (single isomer, unassigned) [Example 10]: the IC50 was no more than 0.1 µM in experiment [1]; no more than 0.1 µM in experiment [2]; no more than 0.01 µM on Tyk-2; no more than 0.01 µM at JAK3 (a.a. 781-1124); no more than 0.01 µM on JAK2; no more than 0.01 µM at JAK1. Further, the IC50 in experiment [3] is no more than 0.1 µM.

`N#CCC(=O)N1CCC[C@@H](Nc2c(-c3ccn(C(F)F)n3)cnc3[nH]ccc23)C1` [Example 2, (R)-3-(3-((5-(1-(difluoromethyl)-1H-pyrazol-3-yl)-1H-pyrrolo[2,3-b]pyridin-4-yl)amino)piperidin-1-yl)-3-oxopropanenitrile]: the IC50 in experiment [1] is 0.1 to 1 µM; in experiment [2], 0.1 to 1 µM; at Tyk-2, 0.01 to 0.1 µM; at JAK3 (a.a. 781-1124), no more than 0.01 µM; on JAK2 it was 0.01 to 0.1 µM; at JAK1 it was no more than 0.01 µM. Further, the IC50 in experiment [3] was no more than 0.1 µM.

For `N#CCC(=O)N1CCC[C@@H](Nc2c(-c3nccs3)cnc3[nH]ccc23)C1` [Example 4, (R)-3-oxo-3-(3-((5-(thiazol-2-yl)-1H-pyrrolo[2,3-b]pyridin-4-yl)amino)piperidin-1-yl)propanenitrile], the IC50 was no more than 0.1 µM in experiment [1]; 0.1 to 1 µM in experiment [2]; no more than 0.01 µM at Tyk-2; no more than 0.01 µM at JAK3 (a.a. 781-1124); no more than 0.01 µM at JAK2; no more than 0.01 µM at JAK1. Moreover, the IC50 in experiment [3] was no more than 0.1 µM.

For `N#CCC(=O)N1CCC[C@@H](Nc2c(-c3ncco3)cnc3[nH]ccc23)C1` [Example 5, (R)-3-(3-((5-(oxazol-2-yl)-1H-pyrrolo[2,3-b]pyridin-4-yl)amino)piperidin-1-yl)-3-oxopropanenitrile], the IC50 in experiment [1] was no more than 0.1 µM; in experiment [2], 0.1 to 1 µM; at Tyk-2 it was no more than 0.01 µM; on JAK3 (a.a. 781-1124) it was no more than 0.01 µM; at JAK2, no more than 0.01 µM; on JAK1, no more than 0.01 µM. Moreover, the IC50 in experiment [3] was no more than 0.1 µM.

Regarding `CNC(=O)c1csc(-c2cnc3[nH]ccc3c2N[C@@H]2CCCN(C(=O)CC#N)C2)n1` [Example 35, (R)-2-(4-((1-(2-cyanoacetyl)piperidin-3-yl)amino)-1H-pyrrolo[2,3-b]pyridin-5-yl)-N-methylthiazole-4-carboxamide], the IC50 was greater than 1 µM in experiment [2]; 0.01 to 0.1 µM at Tyk-2; no more than 0.01 µM at JAK3 (a.a. 781-1124); 0.01 to 0.1 µM on JAK2; no more than 0.01 µM at JAK1; 0.1 to 1 µM in experiment [3].

For the molecule `CNC(=O)c1cnc(-c2cnc3[nH]ccc3c2N[C@@H]2CCCN(C(=O)CC#N)C2)o1` [Example 39, (R)-2-(4-((1-(2-cyanoacetyl)piperidin-3-yl)amino)-1H-pyrrolo[2,3-b]pyridin-5-yl)-N-methyloxazole-5-carboxamide], the IC50 in experiment [1] is greater than 1 µM; on Tyk-2, 0.01 to 0.1 µM; at JAK3 (a.a. 781-1124), no more than 0.01 µM; at JAK2 it was no more than 0.01 µM; at JAK1, 0.01 to 0.1 µM; in experiment [3] it was greater than 1 µM.

For `CNC(=O)c1cnc(-c2cnc3[nH]ccc3c2N[C@@H]2CCCN(C(=O)CC#N)C2)s1` [Example 53, (R)-2-(4-((1-(2-cyanoacetyl)piperidin-3-yl)amino)-1H-pyrrolo[2,3-b]pyridin-5-yl)-N-methylthiazole-5-carboxamide], the IC50 was no more than 0.1 µM in experiment [1]; no more than 0.01 µM at Tyk-2; no more than 0.01 µM at JAK3 (a.a. 781-1124); no more than 0.01 µM at JAK2; no more than 0.01 µM on JAK1; no more than 0.1 µM in experiment [3].

In the case of `CNCCOc1cccc(-c2cnc3[nH]ccc3c2N[C@@H]2CCCN(C(=O)CC#N)C2)n1` [Example 58, (R)-3-(3-((5-(6-(2-(methylamino)ethoxy)pyridin-2-yl)-1H-pyrrolo[2,3-b]pyridin-4-yl)amino)piperidin-1-yl)-3-oxopropanenitrile hydrochloride], the IC50 in experiment [1] is greater than 1 µM; at Tyk-2, 0.1 to 1 µM; on JAK3 (a.a. 781-1124), 0.01 to 0.1 µM; on JAK2 it was 0.1 to 1 µM; on JAK1 it was no more than 0.01 µM; in experiment [3], 0.1 to 1 µM.

Consider `CS(=O)(=O)c1cccc(-c2cnc3[nH]ccc3c2N[C@@H]2CCCN(C(=O)CC#N)C2)c1` [Example 59, (R)-3-(3-((5-(3-(methylsulfonyl)phenyl)-1H-pyrrolo[2,3-b]pyridin-4-yl)amino)piperidin-1-yl)-3-oxopropanenitrile], for which the IC50 is greater than 1 µM in experiment [1]; greater than 1 µM at Tyk-2; 0.1 to 1 µM on JAK3 (a.a. 781-1124); 0.1 to 1 µM at JAK2; no more than 0.01 µM at JAK1; 0.1 to 1 µM in experiment [3].

`CC(=O)c1cnc(-c2cnc3[nH]ccc3c2N[C@@H]2CCCN(C(=O)CC#N)C2)o1` [Example 66, (R)-3-(3-((5-(5-acetyloxazol-2-yl)-1H-pyrrolo[2,3-b]pyridin-4-yl)amino)piperidin-1-yl)-3-oxopropanenitrile]: the IC50 was 0.1 to 1 µM in experiment [1]; 0.01 to 0.1 µM at Tyk-2; no more than 0.01 µM at JAK3 (a.a. 781-1124); 0.01 to 0.1 µM on JAK2; no more than 0.01 µM on JAK1; no more than 0.1 µM in experiment [3].

The record behind these values is patent US11420966B2 (ACLARIS THERAPEUTICS, INC., priority 2019, dated 2022).
